Assay results taken from BindingDB's records for doi:10.1021/bi049459m (University of Florida College of Medicine, 2004).

Legend:
Assay in all cases: Protease Inhibition Assay
[1] = molecular target: T1, Dimer of Gag-Pol polyprotein [489-587,K509R,V521I,L522F,M525I,I543V,L552P,A560V,V571A,I573V,L579M] (Human immunodeficiency virus 1, UniProt P04585, A560V/I543V/I573V/K509R/L522F/L552P/L579M/M525I/V521I/V571A)
T1 construct: 489-587

[2] = molecular target: T2, Dimer of Gag-Pol polyprotein [489-587,K509R,V521I,L522F,M525I,I543V,L552P,A560V,V571A,L579M] (Human immunodeficiency virus 1, UniProt P04585, A560V/I543V/K509R/L522F/L552P/L579M/M525I/V521I/V571A); details: pH 4.7; 37 °C
T2 construct: 489-587

[3] = molecular target: T3, Dimer of Gag-Pol polyprotein [489-587,K509R,V521I,L522F,M525I,L552P,A560V,V571A,I573V,L579M] (Human immunodeficiency virus 1, UniProt P04585, A560V/I573V/K509R/L522F/L552P/L579M/M525I/V521I/V571A)
T3 construct: 489-587

[4] = molecular target: T4, Dimer of Gag-Pol polyprotein [489-587,K509R,V521I,L522F,M525I,L552P,A560V,V571A,L579M] (Human immunodeficiency virus 1, UniProt P04585, A560V/K509R/L522F/L552P/L579M/M525I/V521I/V571A); details: pH 4.7; 37 °C
T4 construct: 489-587

[5] = molecular target: T5, Dimer of Gag-Pol polyprotein [489-587,K509R,V521I,L522F,M525I,M535I,I543V,L552P,A560V,V571A,I573V,L579M] (Human immunodeficiency virus 1, UniProt P04585, A560V/I543V/I573V/K509R/L522F/L552P/L579M/M525I/M535I/V521I/V571A)
T5 construct: 489-587

[6] = molecular target: T6, Dimer of Gag-Pol polyprotein [489-587,K509R,V521I,L522F,M525I,M535I,L552P,A560V,V571A,I573V,L579M] (Human immunodeficiency virus 1, UniProt P04585, A560V/I573V/K509R/L522F/L552P/L579M/M525I/M535I/V521I/V571A)
T6 construct: 489-587

[7] = molecular target: T7, Dimer of Gag-Pol polyprotein [489-587,K509R,V521I,L522F,M525I,M535I,L552P,A560V,V571A,L579M] (Human immunodeficiency virus 1, UniProt P04585, A560V/K509R/L522F/L552P/L579M/M525I/M535I/V521I/V571A); details: pH 4.7; 37 °C
T7 construct: 489-587

[8] = molecular target: T8, Dimer of Gag-Pol polyprotein [489-587] (Human immunodeficiency virus 1, UniProt P04585); details: pH 4.7; 37 °C
T8 construct: 489-587

`Cc1ccccc1CNC(=O)[C@H]1N(C(=O)[C@@H](O)[C@H](Cc2ccccc2)NC(=O)c2cccc(O)c2C)CSC1(C)C` [AG1776] gave a Ki [1] of 9.4 nM, a Ki [2] of 0.19 nM and a Ki [3] of 0.55 nM. The Ki [4] was 0.04 nM, the Ki [5] was 5.6 nM and the Ki [6] was 2.2 nM. For the same molecule, the Ki [7] was 0.5 nM and the Ki [8] was 0.021 nM.
